Values of other authors, collected in US6100258A, “Aromatic amine compounds that antagonize the pain enhancing effects of prostaglandins” (Zeneca Limited, priority 1995, dated 2000).

## CC(=O)NNC(=O)N1Cc2ccccc2Oc2ccc(Cl)cc21 [SC-19220]
Guinea pig ileum
  block of the effect of PGE2: blocks the effect of PGE2
Dog fundus
  block of the effect of PGE2: blocks the effect of PGE2
